Target: T1, MT13-C (C-terminal MTase domain fragment of METL-13) (Caenorhabditis elegans, UniProt Q17539)
T1 construct: C-terminal methyltransferase fragment, residues 213-656, N-terminal His6 tag (pET28a), expressed in E. coli, Ni-NTA purified
T1 sequence (Q17539 213-656): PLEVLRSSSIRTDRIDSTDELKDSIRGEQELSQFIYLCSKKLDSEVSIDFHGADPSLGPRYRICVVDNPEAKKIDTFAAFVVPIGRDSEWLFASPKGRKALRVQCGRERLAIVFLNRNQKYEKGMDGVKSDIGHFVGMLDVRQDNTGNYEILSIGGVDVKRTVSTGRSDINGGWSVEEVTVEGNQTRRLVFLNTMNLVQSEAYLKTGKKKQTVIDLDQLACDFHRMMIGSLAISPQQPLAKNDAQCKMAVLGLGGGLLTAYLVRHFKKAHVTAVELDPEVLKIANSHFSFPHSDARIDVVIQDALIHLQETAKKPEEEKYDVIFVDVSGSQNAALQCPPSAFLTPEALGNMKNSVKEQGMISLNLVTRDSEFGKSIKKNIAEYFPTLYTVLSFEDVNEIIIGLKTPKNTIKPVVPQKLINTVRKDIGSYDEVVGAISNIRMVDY
Assay: in vitro methyltransferase assay, SDS-PAGE fluorography
Format: biochemical
Conditions: methyl donor; protein substrate recombinant human eEF1A1 with C-terminal His tag (N-terminal G2 methylation); labelled compound (tritium); pH 7.4, 100 mM NaCl, 10% glycerol, 30 °C, 1 h

C[S+](CC[C@H](N)C(=O)O)C[C@H]1O[C@@H](n2cnc3c(N)ncnc32)[C@H](O)[C@@H]1O (stereo partly shown) [[^3H]-AdoMet]
in vitro methyltransferase assay, SDS-PAGE fluorography: C. elegans MT13-N or MT13-C as enzymes, human eEF1A1 as the substrate and [^3H]AdoMet
